Test results: patent US7998965B2, “Glutamate aggrecanase inhibitors” (Wyeth LLC, priority 2005, dated 2011)
Like-named read-outs stand apart in the source and are kept apart here.

How the values were obtained:
[1] = target: T1, purified recombinant human Aggrecanase-1 (rAgg1) (Homo sapiens, UniProt O75173); test: In vitro fluorescence screen for Aggrecanase-1 inhibitors; format: biochemical; conditions: Table 1; for IC50: read-out: Agg1 IC50
T1 sequence (O75173 213-837): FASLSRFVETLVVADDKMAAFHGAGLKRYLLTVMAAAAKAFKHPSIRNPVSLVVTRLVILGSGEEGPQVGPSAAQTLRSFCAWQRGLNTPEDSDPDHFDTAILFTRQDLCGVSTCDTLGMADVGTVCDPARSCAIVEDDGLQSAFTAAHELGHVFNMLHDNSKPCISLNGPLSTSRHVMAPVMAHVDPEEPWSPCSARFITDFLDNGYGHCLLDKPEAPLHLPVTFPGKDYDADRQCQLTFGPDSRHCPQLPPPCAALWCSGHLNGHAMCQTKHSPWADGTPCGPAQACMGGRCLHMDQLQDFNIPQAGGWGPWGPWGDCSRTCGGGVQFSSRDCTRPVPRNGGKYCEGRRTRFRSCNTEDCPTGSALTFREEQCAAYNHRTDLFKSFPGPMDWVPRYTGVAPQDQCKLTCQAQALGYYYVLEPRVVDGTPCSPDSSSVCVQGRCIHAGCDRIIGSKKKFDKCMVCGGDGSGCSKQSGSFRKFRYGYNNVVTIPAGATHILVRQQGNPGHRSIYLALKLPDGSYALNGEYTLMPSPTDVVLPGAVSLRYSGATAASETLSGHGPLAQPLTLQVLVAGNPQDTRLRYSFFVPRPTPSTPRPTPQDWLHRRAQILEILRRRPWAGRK

[2] = target: T2, purified recombinant human Aggrecanase-2 (Ag2t-Phe628-Strep) (Homo sapiens, UniProt Q9UNA0); test: In vitro fluorescence screen for Aggrecanase-2 inhibitors; format: biochemical; conditions: Table 1; read-out: Agg 2 IC50
T2 construct: the form used is denoted as Ag2t-Phe628-Strep (MW=41,737)
T2 sequence (Q9UNA0 262-628): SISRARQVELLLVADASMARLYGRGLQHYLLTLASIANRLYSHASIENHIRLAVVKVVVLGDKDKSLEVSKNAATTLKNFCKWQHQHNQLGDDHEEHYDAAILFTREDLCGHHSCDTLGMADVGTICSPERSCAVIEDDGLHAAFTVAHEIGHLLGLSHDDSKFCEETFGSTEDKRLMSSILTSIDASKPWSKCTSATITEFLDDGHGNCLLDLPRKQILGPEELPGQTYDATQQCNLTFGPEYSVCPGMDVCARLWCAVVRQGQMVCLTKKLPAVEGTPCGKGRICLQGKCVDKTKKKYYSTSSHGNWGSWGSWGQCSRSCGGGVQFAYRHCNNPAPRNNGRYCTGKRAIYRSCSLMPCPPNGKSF

[3] = target: T3, recombinant human catalytic domain of MMP-13 (Homo sapiens, UniProt P45452); test: In vitro fluorescence assay of MMP-13 activity; format: biochemical; conditions: Table 1; unit inferred
T3 construct: catalytic domain of MMP-13 (165 amino acids, residues 104-268, 19 kDa)

[4] = target: T4, recombinant human catalytic domain of MMP-14 (Homo sapiens, UniProt P50281); test: In vitro fluorescence assay of MMP-14 activity; format: biochemical; conditions: Table 1; unit inferred
T4 construct: 177 amino acids corresponding to Tyr89-Gly265 of mature human enzyme; purchased Chemicon International, Inc. CC1041

[5] = test system: bovine articular cartilage treated with Interleukin 1 alpha (IL-1α); test: Bovine articular cartilage explant cultures: inhibition of degradation of proteoglycan; format: cell-based; conditions: inhibitory effect expressed as percentage, concentration not printed
Method in brief: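 Bovine metacarpal cartilage discs (6 mm), equilibrated in serum-free DMEM-based medium, were treated with 5 ng/ml IL-1 plus compound (working solutions 0.1-10 μg/ml), with medium collected and replaced on days 1, 2 and 3. Released proteoglycan was measured by DMMB absorbance at 520 nm against chondroitin sulphate standards, expressed as μg per mg cartilage, and inhibition given as percentage.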

MMP-1 = target: T5, MMP-1 (Homo sapiens, UniProt P03956); test: MMP-1 of Table 1; format: biochemical; conditions: for IC50: unit inferred; for MMP-1: unit not given
T5 sequence (P03956 100-469): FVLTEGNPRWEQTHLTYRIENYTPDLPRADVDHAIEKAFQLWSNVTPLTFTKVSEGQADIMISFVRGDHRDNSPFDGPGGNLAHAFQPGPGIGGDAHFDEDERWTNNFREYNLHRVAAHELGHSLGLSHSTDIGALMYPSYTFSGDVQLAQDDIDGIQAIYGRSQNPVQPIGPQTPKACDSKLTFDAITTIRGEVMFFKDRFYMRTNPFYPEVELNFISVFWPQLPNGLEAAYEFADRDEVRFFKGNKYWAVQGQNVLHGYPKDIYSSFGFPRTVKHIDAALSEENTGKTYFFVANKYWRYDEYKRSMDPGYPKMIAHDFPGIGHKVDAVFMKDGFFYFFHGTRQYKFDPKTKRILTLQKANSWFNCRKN

recombinant human MMP-2 = target: T6, recombinant human MMP-2 (Homo sapiens, UniProt P08253); test: In vitro fluorescence assay of MMP-2 activity
T6 sequence (P08253 110-660): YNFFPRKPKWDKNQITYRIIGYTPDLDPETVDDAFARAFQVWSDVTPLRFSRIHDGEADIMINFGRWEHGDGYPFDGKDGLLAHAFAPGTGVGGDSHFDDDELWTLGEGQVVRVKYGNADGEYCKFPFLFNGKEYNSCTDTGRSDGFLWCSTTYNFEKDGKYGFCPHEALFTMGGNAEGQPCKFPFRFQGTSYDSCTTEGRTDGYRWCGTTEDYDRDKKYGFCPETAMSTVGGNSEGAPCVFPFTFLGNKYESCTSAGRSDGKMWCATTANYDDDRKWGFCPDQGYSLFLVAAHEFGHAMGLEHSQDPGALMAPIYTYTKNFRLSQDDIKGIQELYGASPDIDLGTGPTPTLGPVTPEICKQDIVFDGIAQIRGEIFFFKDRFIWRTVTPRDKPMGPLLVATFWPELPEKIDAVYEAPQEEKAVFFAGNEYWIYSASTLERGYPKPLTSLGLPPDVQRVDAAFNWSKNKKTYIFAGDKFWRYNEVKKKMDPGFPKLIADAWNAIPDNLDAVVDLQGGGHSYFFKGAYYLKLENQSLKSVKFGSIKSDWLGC
Experimental: A continuous assay was used in which the substrate is a synthetic peptide containing a fluorescent group (7-methoxycoumarin; Mca), which is quenched by energy transfer to a 2,4-dinitrophenyl group. […] The source of enzyme in the assay was the recombinant human MMP-2 (66 kDa; Oncogene Research Products (catalog number PF023 from Calbiochem)). The substrate used was the peptide Mca-PQGL-(3-[2,4-dinitrophenyl]-L-2,3-diaminopropionyl)-AR-OH. The assay buffer consisted of 50 mM Hepes (pH 7.4), 100 mM NaCl, 5 mM CaCl2, and 0.005% Brij-35. […] The plates were then incubated at 30° C. for 15 minutes. The enzymatic reactions were initiated by adding the substrate to a final concentration of 20 μM, and mixing 10 times with a pipette. The final DMSO concentration in the assay was 6.0%.
Plots of the inhibitor concentration vs. the percent inhibition were fit to the following equation: y=(a−d)/[^1+(x/c)^b]+d, a general sigmoidal curve with Hill slope, a to d. x is the inhibitor concentration under test. y is the percent inhibition. a is the limiting response as x approaches zero. As x increases without bound, y tends toward its limit d. c is the inflection point (IC50) for the curve. That is, y is halfway between the lower and upper asymptotes when x=c. b is the slope factor or Hill coefficient.

[6] = Table 1, first of two columns headed bovine
[7] = Table 1, second of two columns headed bovine

IC50 [1]	IC50 [2]	IC50 [3]	IC50 [4]	IC50 (MMP-1)	IC50 (recombinant human MMP-2)	MMP-1 (MMP-1)	Ki ([1]; enzyme not given, column follows Agg1 IC50, read-out: Ki)	SMILES	bovine [5, 6]	bovine [5, 7]	IC50 (recombinant human MMP-2; read-out: MMP-2, Table 1, unit inferred)
0.15 µM	1.8 µM	~13 µM	~13 µM	> 100 µM	3 µM	–	–	O=C(O)CC[C@H](NC(=O)c1ccc(-c2ccccc2)cc1)C(=O)NCc1ccc2c(c1)OCO2 [Example 7, N^1-(1,3-benzodioxol-5-ylmethyl)-N^2-(1,1′-biphenyl-4-ylcarbonyl)-L-α-glutamine]	61%	28%	–
0.15 µM	0.9 µM	~40 µM	~25 µM	> 100 µM	4.4 µM	–	–	O=C(O)CC[C@H](NC(=O)c1ccc(-c2ccccc2)cc1)C(=O)NC1CCCCC1 [Example 8A, N^2-(1,1′-biphenyl-4-ylcarbonyl)-N^1-cyclohexyl-L-α-glutamine]	75%	29%	–
0.1 µM	1.9 µM	~50 µM	> 66.6 µM	–	9.1 µM	no inh	–	O=C(O)CC[C@H](NC(=O)c1ccc(-c2ccccc2)cc1)C(=O)NCCc1ccccc1Cl [Example 8VV, N^2-(biphenyl-4-ylcarbonyl)-N^1-[2-(2-chlorophenyl)ethyl]-L-α-glutamine]	–	–	–
0.03 µM	0.42 µM	~50 µM	> 66.6 µM	–	5.6 µM	no inh	0.038 µM	CCCCCCNC(=O)[C@H](CCC(=O)O)NC(=O)c1ccc(-c2ccccc2)cc1 [Example 8VVV, N^2-(biphenyl-4-ylcarbonyl)-N^1-hexyl-L-α-glutamine]	–	–	–
0.075 µM	0.971 µM	~22 µM	~25 µM	–	~2.5 µM	no inh	–	O=C(O)CC[C@H](NC(=O)c1ccc(-c2ccccc2)cc1)C(=O)NCc1ccc(Oc2ccccc2)cc1 [Example 8W, N^2-(1,1′-biphenyl-4-ylcarbonyl)-N^1-(4-phenoxybenzyl)-L-α-glutamine]	–	–	–
0.07 µM	0.35 µM	~50 µM	> 66.6 µM	–	13.3 µM	no inh	–	O=C(O)CC[C@H](NC(=O)c1ccc(-c2ccccc2)cc1)C(=O)NCCc1cccs1 [Example 8WW, N^2-(biphenyl-4-ylcarbonyl)-N^1-[2-(2-thienyl)ethyl]-L-α-glutamine]	–	–	–
0.036 µM	0.84 µM	~200 µM	> 200 µM	–	7.4 µM	no inh	–	O=C(O)CC[C@H](NC(=O)c1ccc(-c2ccccc2)cc1)C(=O)NCCCCCO [Example 8WWW, N^2-(biphenyl-4-ylcarbonyl)-N^1-(5-hydroxypentyl)-L-α-glutamine]	–	–	–
0.1 µM	1.1 µM	~67 µM	~25 µM	–	7 µM	no inh	–	COc1cccc(CCNC(=O)[C@H](CCC(=O)O)NC(=O)c2ccc(-c3ccccc3)cc2)c1 [Example 8X, N^2-(1,1′-biphenyl-4-ylcarbonyl)-N^1-[2-(3-methoxyphenyl)ethyl]-L-α-glutamine]	–	–	–
0.03 µM	0.93 µM	~50 µM	> 200 µM	–	7.9 µM	no inh	–	O=C(O)CC[C@H](NC(=O)c1ccc(-c2ccccc2)cc1)C(=O)NCCCCCCO [Example 8XXX, N^2-(biphenyl-4-ylcarbonyl)-N^1-(6-hydroxyhexyl)-L-α-glutamine]	–	–	–
0.05 µM	0.52 µM	~67 µM	~25 µM	–	5.53 µM	no inh	–	COc1ccc(CNC(=O)[C@H](CCC(=O)O)NC(=O)c2ccc(-c3ccccc3)cc2)c(OC)c1 [Example 8Y, N^2-(1,1′-biphenyl-4-ylcarbonyl)-N^1-(2,4-dimethoxybenzyl)-L-α-glutamine]	–	–	–
0.1 µM	1.6 µM	> 50 µM	> 200 µM	–	9.4 µM	no inh	–	CCCNC(=O)[C@H](CCC(=O)O)NC(=O)c1ccc(-c2ccccc2)cc1 [Example 8YYY, N^2-(biphenyl-4-ylcarbonyl)-N^1-propyl-L-α-glutamine]	–	–	–
0.08 µM	0.68 µM	~67 µM	~25 µM	–	3.82 µM	no inh	–	COc1ccccc1CNC(=O)[C@H](CCC(=O)O)NC(=O)c1ccc(-c2ccccc2)cc1 [Example 8Z, N^2-(1,1′-biphenyl-4-ylcarbonyl)-N^1-(2-methoxybenzyl)-L-α-glutamine]	–	–	–
< 0.01 µM	0.0134 µM	0.052 µM	0.0736 µM	~1.56 µM	0.0033 µM	–	–	O=C(CC[C@H](NC(=O)c1ccc(-c2ccccc2)cc1)C(=O)NCc1cccc(OC(F)(F)F)c1)NO [Example 33D, N^2-(1,1′-biphenyl-4-ylcarbonyl)-N^5-hydroxy-N^1-[3-(trifluoromethoxy)benzyl]-L-α-glutamamide]	–	–	–

SMILES	IC50 [1]	IC50 [2]	IC50 [3]	IC50 [4]	IC50 (MMP-1)	IC50 (recombinant human MMP-2)	MMP-1 (MMP-1)	Ki ([1]; enzyme not given, column follows Agg1 IC50, read-out: Ki)	bovine [5, 6]	bovine [5, 7]	IC50 (recombinant human MMP-2; read-out: MMP-2, Table 1, unit inferred)
O=C(O)CC[C@H](NC(=O)c1ccc(-c2ccccc2)cc1)C(=O)NCc1ccc(F)cc1 [Example 8D, N^2-(1,1′-biphenyl-4-ylcarbonyl)-N^1-(4-fluorobenzyl)-L-α-glutamine]	0.22 µM	–	~25 µM	17 µM	> 100 µM	4.4 µM	–	–	67%	27%	–
COc1cc(CNC(=O)[C@H](CCC(=O)NO)NC(=O)c2ccc(-c3ccccc3)cc2)cc(OC)c1OC [Example 33A, N^2-(1,1′-biphenyl-4-ylcarbonyl)-N^5-hydroxy-N^1-(3,4,5-trimethoxybenzyl)-L-α-glutamamide]	< 0.01 µM	0.0026 µM	0.032 µM	0.112 µM	1.75 µM	–	–	–	–	–	0.0047 µM
